Measurements published in patent publication US20210101881A1 (Ancureall Pharmaceutical (Shanghai) Co., Ltd., priority 2018, published 2021).

Assays:
[1] = target: T1, CDK9/CyclinK kinase (Homo sapiens, UniProt P50750); experiment: CDK9 protein kinase activity, ADP-Glo CDK9/CyclinK kinase detection kit; assay type: biochemical; settings: read-out: IC50 of the compound for inhibiting CDK9 protein kinase activity, CDK9/CyclinK kinase
T1 construct: purchased Promega Corporation V4105
Protocol: Measurement of CDK9 Protein Kinase Activity
The present compound was dissolved in DMSO (Sigma Aldrich), and the initial concentration of the compound was 1000 nM. A two-fold serial dilution was carried out. The specific operation of CDK9 kinase activity determination was carried out according to the ADP-Go™ CDK9/CyclinK kinase detection experimental procedure. […] Each test sample was tested in duplicate, and the test was repeated once. The inhibitory activity (IC50) of the compound on CDK9 protein kinase was calculated from the dose-inhibition curve of the compound.

[2] = test system: 8305C; experiment: Growth inhibition of CDK9-positive tumor cell line in vitro; assay type: cell-based; settings: Human thyroid cancer, read-out: Inhibitory activity (IC50) on growth in vitro, 8305C
Protocol: (§1) Measurement of the Inhibitory Activity of the Present Compound on the Growth of Various Types of CDK9-Positive Tumor Cell Lines In Vitro
(§2) The inventors selected representative CDK9-positive tumor cell lines for further determination of the compound activity. All cell lines used came from ATCC, JCRB, DSMZ and Chinese Academy of Sciences Cell Bank (ZK). Cell culture condition and method were based on the requirements of each cell line. No more than 3 passages were carried out in each culture in vitro. Monoclonal purification and STR identification of the cell line were conducted if necessary.

[3] = test system: A375; experiment: as above; assay type: cell-based; settings: A-375, Human melanoma, read-out: Inhibitory activity (IC50) on growth in vitro, A375
Protocol: as §1, §2

[4] = test system: BT-474; experiment: as above; assay type: cell-based; settings: Human breast cancer, read-out: Inhibitory activity (IC50) on growth in vitro, BT-474
Protocol: as §1, §2

[5] = test system: BT-549; experiment: as above; assay type: cell-based; settings: Human breast cancer, read-out: Inhibitory activity (IC50) on growth in vitro, BT-549
Protocol: as §1, §2

[6] = test system: CA Ski; experiment: as above; assay type: cell-based; settings: Human cervical cancer, read-out: Inhibitory activity (IC50) on growth in vitro, CA Ski
Protocol: as §1, §2

[7] = test system: DU-145; experiment: as above; assay type: cell-based; settings: Human prostate cancer, read-out: Inhibitory activity (IC50) on growth in vitro, DU-145
Protocol: as §1, §2

[8] = test system: HCT-116; experiment: as above; assay type: cell-based; settings: Human intestinal cancer, read-out: Inhibitory activity (IC50) on growth in vitro, HCT-116
Protocol: as §1, §2

[9] = test system: HO8910PM; experiment: as above; assay type: cell-based; settings: Human ovarian cancer, read-out: Inhibitory activity (IC50) on growth in vitro, HO8910PM
Protocol: as §1, §2

[10] = test system: KHM-5M; experiment: as above; assay type: cell-based; settings: read-out: Inhibitory activity (IC50) on growth in vitro, Human thyroid cancer
Protocol: as §1, §2

[11] = test system: KYSE70; experiment: as above; assay type: cell-based; settings: KYSE-70, Human esophageal cancer, read-out: Inhibitory activity (IC50) on growth in vitro, KYSE70
Protocol: as §1, §2

[12] = test system: LN229; experiment: as above; assay type: cell-based; settings: LN-229, Human glioma, read-out: Inhibitory activity (IC50) on growth in vitro, LN229
Protocol: as §1, §2

[13] = test system: MCF7; experiment: as above; assay type: cell-based; settings: Human breast cancer, read-out: Inhibitory activity (IC50) on growth in vitro, MCF7
Protocol: as §1, §2

[14] = test system: MDA-MB-231; experiment: as above; assay type: cell-based; settings: Human breast cancer, read-out: Inhibitory activity (IC50) on growth in vitro, MDA-MB-231
Protocol: as §1, §2

[15] = test system: MFM-223; experiment: as above; assay type: cell-based; settings: Human breast cancer, read-out: Inhibitory activity (IC50) on growth in vitro, MFM-223
Protocol: as §1, §2

[16] = test system: MX-1; experiment: as above; assay type: cell-based; settings: MX1, Human breast cancer, read-out: Inhibitory activity (IC50) on growth in vitro, MX-1
Protocol: as §1, §2

[17] = test system: NCI-H1581; experiment: as above; assay type: cell-based; settings: Human lung cancer, read-out: Inhibitory activity (IC50) on growth in vitro, NCI-H1581
Protocol: as §1, §2

[18] = test system: NCI-H1703; experiment: as above; assay type: cell-based; settings: Human lung cancer, read-out: Inhibitory activity (IC50) on growth in vitro, NCI-H1703
Protocol: as §1, §2

[19] = test system: NCI-H1781; experiment: as above; assay type: cell-based; settings: Human lung cancer, read-out: Inhibitory activity (IC50) on growth in vitro, NCI-H1781
Protocol: as §1, §2

[20] = test system: NCI-H358; experiment: as above; assay type: cell-based; settings: Human lung cancer, read-out: Inhibitory activity (IC50) on growth in vitro, NCI-H358
Protocol: as §1, §2

[21] = test system: Pfeiffer; experiment: as above; assay type: cell-based; settings: Human B lymphocyte tumor, read-out: Inhibitory activity (IC50) on growth in vitro, Pfeiffer
Protocol: as §1, §2

[22] = test system: SK-BR-3; experiment: as above; assay type: cell-based; settings: Human breast cancer, read-out: Inhibitory activity (IC50) on growth in vitro, SK-BR-3
Protocol: as §1, §2

[23] = test system: SK-MEL-28; experiment: as above; assay type: cell-based; settings: Human melanoma, read-out: Inhibitory activity (IC50) on growth in vitro, SK-MEL-28
Protocol: as §1, §2

T1 sequence (P50750 whole entry): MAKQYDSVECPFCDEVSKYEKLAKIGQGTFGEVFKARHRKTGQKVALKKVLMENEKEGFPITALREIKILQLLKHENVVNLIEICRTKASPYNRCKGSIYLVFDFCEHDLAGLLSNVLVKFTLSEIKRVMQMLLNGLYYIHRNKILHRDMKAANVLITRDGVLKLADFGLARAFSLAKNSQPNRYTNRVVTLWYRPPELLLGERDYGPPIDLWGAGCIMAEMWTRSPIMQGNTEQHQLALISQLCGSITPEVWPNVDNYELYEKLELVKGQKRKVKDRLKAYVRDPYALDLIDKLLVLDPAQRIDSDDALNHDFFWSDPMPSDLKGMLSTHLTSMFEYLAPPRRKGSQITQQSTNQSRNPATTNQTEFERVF
T1 sequence (O75909 whole entry partner): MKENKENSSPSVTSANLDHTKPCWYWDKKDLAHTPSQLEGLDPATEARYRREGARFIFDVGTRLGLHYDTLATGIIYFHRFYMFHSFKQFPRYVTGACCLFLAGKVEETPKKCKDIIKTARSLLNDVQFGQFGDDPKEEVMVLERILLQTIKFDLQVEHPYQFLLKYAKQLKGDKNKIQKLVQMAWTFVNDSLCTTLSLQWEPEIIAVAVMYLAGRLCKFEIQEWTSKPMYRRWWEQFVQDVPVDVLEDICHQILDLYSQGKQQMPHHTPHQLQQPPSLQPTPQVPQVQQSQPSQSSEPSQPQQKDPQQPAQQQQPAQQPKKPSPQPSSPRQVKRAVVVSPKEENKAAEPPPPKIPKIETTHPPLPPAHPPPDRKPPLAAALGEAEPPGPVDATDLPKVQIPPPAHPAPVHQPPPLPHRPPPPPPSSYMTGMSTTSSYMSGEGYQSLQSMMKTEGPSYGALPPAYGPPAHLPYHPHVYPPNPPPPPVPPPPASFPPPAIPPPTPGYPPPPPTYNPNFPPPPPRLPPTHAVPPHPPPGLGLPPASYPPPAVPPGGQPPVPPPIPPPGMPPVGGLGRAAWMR

IC50 [2] [nM] | IC50 [3] [nM] | IC50 [4] [nM] | IC50 [5] [nM] | IC50 [6] [nM] | IC50 [7] [nM] | IC50 [8] [nM] | IC50 [9] [nM] | IC50 [10] [nM] | IC50 [11] [nM] | IC50 [12] [nM] | IC50 [13] [nM] | IC50 [15] [nM] | IC50 [16] [nM] | IC50 [17] [nM] | IC50 [18] [nM] | IC50 [19] [nM] | IC50 [20] [nM] | IC50 [21] [nM] | IC50 [22] [nM] | SMILES | also measured
< 1 | 1 to 10 | < 1 | < 1 | < 1 | < 1 | 1 to 10 | < 1 | < 1 | 1 to 10 | < 1 | < 1 | < 1 | < 1 | < 1 | < 1 | < 1 | 1 to 10 | < 1 | < 1 | CC(C)N1CCN(c2cccc(Nc3ncc(F)c(-n4cc(C(N)=O)c5ccccc54)n3)c2)CC1 [Compound 144, 1-{5-fluoro-2-[3-(4-isopropyl-piperazin-1-yl)-phenylamino]-pyrimidin-4-yl}-1H-indole-3-carboxamide] | IC50 [14]: < 1 nM; IC50 [23]: 1 to 10 nM
10 to 100 | 100 to 1000 | 10 to 100 | 10 to 100 | 10 to 100 | 10 to 100 | 100 to 1000 | 10 to 100 | 10 to 100 | 100 to 1000 | 100 to 1000 | 10 to 100 | 10 to 100 | 1 to 10 | 10 to 100 | 10 to 100 | 10 to 100 | 100 to 1000 | 10 to 100 | 1 to 10 | Cc1cc(Nc2ncc(Cl)c(-n3cc(C(N)=O)c4ccccc43)n2)ccc1N1CCN(C(C)C)CC1 [Compound 60, 1-{5-chloro-2-[4-(4-isopropyl-piperazin-1-yl)-3-methyl-phenylamino]-pyrimidin-4-yl}-1H-indole-3-carboxamide] | IC50 [1]: 1 to 10 nM; IC50 [23]: 100 to 1000 nM
1 to 10 | 1 to 10 | < 1 | < 1 | < 1 | 1 to 10 | 1 to 10 | < 1 | 1 to 10 | 1 to 10 | 1 to 10 | < 1 | < 1 | < 1 | < 1 | < 1 | < 1 | 1 to 10 | < 1 | < 1 | CCN1CCN(c2cccc(Nc3ncc(F)c(-n4cc(C(N)=O)c5cc(F)ccc54)n3)c2)CC1 [Compound 161, 1-{2-[3-(4-ethyl-piperazin-1-yl)-phenylamino]-5-fluoro-pyrimidin-4-yl}-5-fluoro-1H-indole-3-carboxamide] | IC50 [1]: < 1 nM; IC50 [14]: < 1 nM; IC50 [23]: 1 to 10 nM

SMILES | IC50 [2] [nM] | IC50 [3] [nM] | IC50 [4] [nM] | IC50 [5] [nM] | IC50 [6] [nM] | IC50 [7] [nM] | IC50 [8] [nM] | IC50 [9] [nM] | IC50 [10] [nM] | IC50 [11] [nM] | IC50 [12] [nM] | IC50 [13] [nM] | IC50 [15] [nM] | IC50 [16] [nM] | IC50 [17] [nM] | IC50 [18] [nM] | IC50 [19] [nM] | IC50 [20] [nM] | IC50 [21] [nM] | IC50 [22] [nM] | also measured
CCN1CCN(c2cccc(Nc3ncc(F)c(-n4cc(C(N)=O)c5cc(OC)ccc54)n3)c2)CC1 [Compound 152, 1-{2-[3-(4-ethyl-piperazin-1-yl)-phenylamino]-5-fluoro-pyrimidin-4-yl}-5-methoxy-1H-indole-3-carboxamide] | 1 to 10 | 1 to 10 | < 1 | < 1 | < 1 | 1 to 10 | 1 to 10 | < 1 | 1 to 10 | 1 to 10 | 1 to 10 | < 1 | < 1 | < 1 | < 1 | < 1 | < 1 | 1 to 10 | < 1 | < 1 | IC50 [1]: < 1 nM; IC50 [14]: < 1 nM; IC50 [23]: 1 to 10 nM
NC(=O)c1cn(-c2nc(Nc3cccc(N4CCN(C5CCOCC5)CC4)c3)ncc2F)c2ccccc12 [Compound 140, 1-(5-fluoro-2-{3-[4-(tetrahydro-pyran-4-yl)-piperazin-1-yl]-phenylamino}-pyrimidin-4-yl)-1H-indole-3-carboxamide] | < 1 | 1 to 10 | < 1 | < 1 | < 1 | < 1 | 1 to 10 | < 1 | < 1 | 1 to 10 | 1 to 10 | < 1 | < 1 | < 1 | < 1 | < 1 | < 1 | 1 to 10 | < 1 | < 1 | IC50 [14]: < 1 nM; IC50 [23]: 1 to 10 nM
